Marks after values point to notes of the source that are not given here.
conditions: pH 2.3

Row | SMILES | Log P
1 | CC(C)C(C)NC(=C(C#N)C(=O)NC1CSC1)c1cccnc1Cl (stereo not shown) [Compound 1452] | 3.22^[c]; 3.22^[b]
2 | COC(=O)C(C#N)=C(NCC(N)=O)c1cccnc1Cl [Compound 569] | 1.14
3 | COC(=O)C(C#N)=C(NC(CO)C(N)=O)c1cccnc1Cl (stereo not shown) [Compound 570] | 0.97
4 | CC(C)C(C)NC(=C(C#N)C(=O)NC1CC1F)c1cccnc1Cl (stereo not shown) [Compound 1456] | 2.83^[c]; 2.83^[b]

same assay, conditions: pH 2.7

Row | SMILES | Log P
5 | CCOC(=O)C(C#N)=C(NC(C)COC)c1cn(C)nc1C(F)F (stereo not shown) [Compound 685] | 2.41^[a]
6 | COC(=O)CNC(=O)C(C#N)=C(NC(C)c1nccs1)c1cccnc1Cl (stereo not shown) [Compound 1596] | 1.9^[a]
7 | CCOC(=O)C(C#N)=C(Nc1cccc(Cl)c1)c1sccc1C(F)(F)F [Compound 511] | 4.14
8 | CCOC(=O)C(C#N)=C(NC(C)C(C)C)c1cnc(Cl)cc1Cl (stereo not shown) [Compound 968] | 3.96^[a]
9 | CCCC(C)NC(=C(C#N)C(=O)OCC)c1sc(C)nc1C(F)(F)F (stereo not shown) [Compound 868] | 3.96^[a]
10 | CCOC(=O)C(C#N)=C(NC(C)c1ccccn1)c1ccnc(Br)c1Br (racemic) [Compound 1409] | 3.11^[a]
11 | CCCCCCC(C)NC(=C(C#N)C(=O)OCC)c1sc(C)nc1C(F)(F)F (racemic) [Compound 818] | 5.22^[a]
12 | CCOC(=O)C(C#N)=C(NC(C)CC(=O)Nc1ccccc1C)c1cccnc1Cl (stereo not shown) [Compound 1192] | 2.8^[a]
13 | CCOC(=O)C(C#N)=C(NC(C)c1ccccn1)c1sccc1Br (stereo not shown) [Compound 100] | 3.1^[a]
14 | CCOC(=O)C(C#N)=C(NC(C)c1ncc(Br)cc1Cl)c1cccnc1Cl (mixture of isomers) [Compound 287] | 3.9^[a]
15 | CCOC(=O)C(C#N)=C(NCc1nccs1)c1ccsc1Br [Compound 104] | 2.66^[a]
16 | CCOC(=O)C(C#N)=C(NC(C)c1nc2ccccc2[nH]1)c1cccnc1Cl (racemic) [Compound 279] | 2^[a]
17 | COC(=O)C(C#N)=C(NC1CCCC1)c1cccnc1Cl [Compound 763] | 2.61^[a]
18 | CCOC(=O)C(C#N)=C(NC(C)C(N)=O)c1ccncc1F (stereo not shown) [Compound 733] | 1.37^[a]
19 | CCOC(=O)C(C#N)=C(NC(C)C1CC1)c1cn(C)nc1C(F)(F)F (racemic) [Compound 894] | 3.29^[a]
20 | CCOC(=O)C(C#N)=C(NC(C)(C)C#Cc1ccc(C#N)cc1)c1cn(C)nc1C(F)F [Compound 1238] | 3.69^[a]
21 | CCCC(CC)NC(=C(C#N)C(=O)OCC)c1cccnc1Cl (stereo not shown) [Compound 1434] | 3.8^[a]
22 | CCOC(=O)C(C#N)=C(NC(C)c1nccs1)c1cnn(C)c1Cl (racemic) [Compound 1483] | 2.42^[a]
23 | CCOC(=O)C(C#N)=C(NC(C)c1nccn1C)c1cccnc1Cl (stereo not shown) [Compound 1637] | 0.93^[a]
24 | CCOC(=O)C(C#N)=C(NC(C)c1ccc(Cl)cc1)c1ccncc1Cl (racemic) [Compound 541] | 3.78^[a]
25 | CCOC(=O)C(C#N)=C(NCc1ncccc1C(F)(F)F)c1cccnc1Cl [Compound 1554] | 3^[a]

Row | SMILES | Log P
26 | CCOC(=O)C(C#N)=C(NC1CCCCC1)c1cn(C)nc1C(F)F [Compound 1333] | 3.29^[a]
27 | CCOC(=O)C(C#N)=C(NC(C)c1nccs1)c1ccnc(C(F)(F)F)c1Cl (stereo not shown) [Compound 1626] | 3.46^[a]
28 | CCCCCC(C)NC(=C(C#N)C(=O)OCC)c1sccc1Br (stereo not shown) [Compound 844] | 5.03^[a]
29 | CCOC(=O)C(C#N)=C(NC(C)c1nccs1)c1cn(C)nc1C(F)(F)F (racemic) [Compound 63] | 2.78^[a]
30 | CCOC(=O)C(C#N)=C(NC(C)C1CCC1)c1cn(C)nc1C(F)F (stereo not shown) [Compound 1133] | 3.33^[a]
31 | CCOC(=O)C(C#N)=C(NC(C)COC)c1ccnc(C(F)(F)F)c1Cl (stereo not shown) [Compound 1623] | 3.46^[a]
32 | CCOC(=O)C(C#N)=C(NCc1csc(-c2ccccc2)n1)c1cccnc1Cl [Compound 319] | 3.63^[a]
33 | COC(=O)C(C#N)=C(NC(C)c1ccccc1OC)c1cccnc1Cl (stereo not shown) [Compound 392] | 2.84^[a]
34 | COC(=O)C(C#N)=C(NC(C)(C)c1ccccc1)c1cccnc1Cl [Compound 370] | 2.98^[a]
35 | C=CCCCC(C=C)NC(=C(C#N)C(=O)OCC)c1conc1C (stereo not shown) [Compound 1020] | 3.81^[a]
36 | CCCCCC(C)NC(=C(C#N)C(=O)OC)c1sc(C)nc1C(F)(F)F (racemic) [Compound 852] | 4.41^[a]
37 | CCOC(=O)C(C#N)=C(Nc1ccc(SC)cc1)c1sc(C)nc1C(F)(F)F [Compound 480] | 3.87^[a]
38 | CCOC(=O)C(C#N)=C(NC(C)c1nc(C)c(C)s1)c1conc1C (stereo not shown) [Compound 74] | 3.02^[a]
39 | CCOC(=O)C(C#N)=C(NC(c1cc2ccccc2s1)C(F)(F)F)c1sccc1Cl (racemic) [Compound 162] | 4.89^[a]
40 | COC(=O)C(C#N)=C(NC(C)CC1CC1)c1cccnc1Cl (stereo not shown) [Compound 766] | 2.84^[a]
41 | COC(=O)C(C#N)=C(Nc1cccc(Cl)c1)c1sc(C)nc1C(F)(F)F [Compound 518] | 3.53^[a]
42 | CCOC(=O)C(C#N)=C(Nc1ccccc1SC(F)(F)C(F)Cl)c1cc(C)oc1C (stereo not shown) [Compound 418] | 4.25^[a]
43 | CCOC(=O)C(C#N)=C(NCC#N)c1ccsc1Br [Compound 791] | 2.32^[a]
44 | COC(=O)C(C#N)=C(NC(C)c1ccc(Cl)cc1)c1cccnc1Cl (stereo not shown) [Compound 332] | 3.24^[a]
45 | CCOC(=O)C(C#N)=C(NC(C)C(C)C)c1ccncc1Cl (stereo not shown) [Compound 978] | 3.29^[a]
46 | CCOC(=O)C(C#N)=C(NC(C)c1sc(C)nc1C)c1cn(C)nc1C(F)F (racemic) [Compound 187] | 2.43^[a]

Row | SMILES | Log P
47 | CCOC(=O)C(C#N)=C(NC(C)c1ccccn1)c1ccncc1Cl (racemic) [Compound 260] | 2.54^[a]
48 | CCOC(=O)C(C#N)=C(NC(C)c1sc(C)nc1C)c1ccsc1Br (racemic) [Compound 261] | 2.9^[a]
49 | CCOC(=O)C(C#N)=C(Nc1ccc(OC)cc1)c1sccc1C(F)(F)F [Compound 483] | 3.62^[a]
50 | CCOC(=O)C(C#N)=C(NC(C)C1CCCCC1)c1ccsc1Br (stereo not shown) [Compound 877] | 5.03^[a]
51 | CCOC(=O)C(C#N)=C(NC(C)c1cccs1)c1ccsc1Br (racemic) [Compound 250] | 3.99^[a]
52 | CCOC(=O)C(C#N)=C(NC(C)c1ncc(C)s1)c1cn(C)nc1C(F)F (stereo not shown) [Compound 190] | 2.68^[a]
53 | CCOC(=O)C(C#N)=C(NC(C)C1CC1)c1cn(C)nc1C(Cl)Cl (racemic) [Compound 1560] | 3.23^[a]
54 | CCOC(=O)C(C#N)=C(NC(C)(C)CSC)c1sc(C)nc1C(F)(F)F [Compound 704] | 3.62^[a]
55 | COC(=O)C(C#N)=C(NC(C)C(N)=O)c1sc(C)nc1C(F)(F)F (racemic) [Compound 668] | 1.78^[a]
56 | CCOC(=O)C(C#N)=C(Nc1ccc(N(C)C)cc1)c1cn(C)nc1C(F)F [Compound 496] | 2.71^[a]
57 | CCOC(=O)C(C#N)=C(NC(C)C1CCC1)c1cccnc1Cl (stereo not shown) [Compound 1191] | 3.55^[a]
58 | CCOC(=O)C(C#N)=C(NC(C)c1nccs1)c1cnccc1Br (racemic) [Compound 257] | 2.88^[a]
59 | CCOC(=O)C(C#N)=C(NC(C)c1nccs1)c1cc(Cl)ncc1Cl (racemic) [Compound 252] | 3.15^[a]
60 | CCOC(=O)C(C#N)=C(NC(C)C(=O)NC)c1ccnc2ccccc12 (stereo not shown) [Compound 1503] | 1.8^[a]
61 | COC(=O)C(C#N)=C(Nc1ccc(N(C)C)cc1)c1sc(C)nc1C(F)(F)F [Compound 486] | 3.31^[a]
62 | COC(=O)C(C#N)=C(NC(C)C(C)(C)C)c1sc(C)nc1C(F)(F)F (racemic) [Compound 920] | 3.83^[a]
63 | CC(C)C(C)NC(=C(C#N)C(=O)Nc1ccccn1)c1cccnc1Cl (stereo not shown) [Compound 1516] | 3.21^[a]
64 | CCOC(=O)C(C#N)=C(NC(C)c1ccccn1)c1ccnc(C(F)(F)F)c1Cl (stereo not shown) [Compound 1625] | 3.33^[a]
65 | CCOC(=O)C(C#N)=C(NC(C)COCc1ccccc1Cl)c1cccnc1Cl (stereo not shown) [Compound 1172] | 4.06^[a]
66 | CCOC(=O)C(C#N)=C(NCC(C)c1ccccc1Br)c1cccnc1Cl (stereo not shown) [Compound 1378] | 3.94^[a]
67 | CCOC(=O)C(C#N)=C(NC(C#N)c1ccccc1)c1cn(C)nc1C(F)F (stereo not shown) [Compound 1230] | 2.94^[a]

same assay, conditions: pH 7.5

Row | SMILES | Log P
68 | COC(=O)C(C#N)=C(NC(C)C(C)(C)C)c1cccnc1Cl (mixture of isomers) [Compound 916] | 3.14
69 | CC(C)C(C)NC(=C(C#N)C(=O)NC1CSC1)c1cccnc1Cl (stereo not shown) [Compound 1452] | 3.22^[c]; 3.22^[b]
70 | COC(=O)C(C#N)=C(NCC(N)=O)c1cccnc1Cl [Compound 569] | 0.94
71 | CCOC(=O)C(C#N)=C(NC1CCCCC1O)c1cccnc1Cl (mixture of isomers) [Compound 1064] | 2.27
72 | CCOCCOC(=O)C(C#N)=C(NC(C)c1nccs1)c1cccnc1Cl (stereo not shown) [Compound 12] | 2.4
73 | COC(=O)C(C#N)=C(NC(CO)C(N)=O)c1cccnc1Cl (stereo not shown) [Compound 570] | 0.79
74 | CNC(=O)C(C#N)=C(NC(C)c1nccs1)c1cccnc1Cl (racemic) [Compound 269] | 1.69
75 | CC(C)C(C)NC(=C(C#N)C(=O)NC1CC1F)c1cccnc1Cl (stereo not shown) [Compound 1456] | 2.83^[c]; 2.83^[b]
76 | CCOC(=O)C(C#N)=C(NC(C)C(F)(F)F)c1cccnc1Cl (mixture of isomers) [Compound 806] | 2.9
